Laboratory results published in patent US4812465A, “Triazole derivatives for use as antimycotic agents” (CL Pharma Aktiengesellschaft, priority 1986, dated 1989).
Values after ≈ are worked out from the molar mass of the structure shown. Values joined by “and” are separate entries in the source; they are usually repeats but may differ in a detail not shown here. Equal entries are not always repeated.

Key:
Experiment in all cases: In vitro determination of minimum inhibitory concentration (MIC), serial dilution
Assay type in all cases: cell-based
Absidia ramosa = settings: pH 6.0, 22° C., 14 days; for MIC: Lichtheimia ramosa, 336 h, pH 6, Absidia ramosa
Description: (§1) The antimycotic activities of the compounds were measured by in vitro determination of the minimum inhibitory concentration (MIC) for yeasts, molds and dermatophytes.
(§2) 6 dermatophytes, 2 yeasts and 4 molds were used for testing with fungi, as follows:
(§3) The minimum inhibitory concentration (MIC) was determined in serial dilution tests in test tubes. The volume of the liquid nutrient medium in each test tube was 4.5 ml.
(§4) The substances were dissolved in DMSO and diluted with sterile distilled water to 10 concentrations (100, 50, 25, 12.5, 6.25, 3.12, 1.56, 0.78, 0.39 and 0.19 μg/ml). 0.5 ml of each of these dilution steps was added to liquid nutrient medium. Thus, a constant concentration of solvent in all the nutrient media was ensured, irrespective of the active compound concentration.
(§5) A comparison solution which contained only the solvent in appropriate concentration was included when carrying out each of the tests.
(§6) The individual strains were maintained on Sabouraud/beerwort agar slants and, before they were used in a test, they underwent a passage on a modified Sabouraud liquid nutrient medium. The strains were then harvested, washed and converted into a suspension of McFaerland 3 in the case of yeasts and molds and of McFaerland 4-5 in the case of dermatophytes.
(§7) The amount of material inoculated (inoculum) was 100 μl/test tube (inoculated densities: yeasts about 10^3 /ml, molds about 10^4 /ml, dermatophytes about 10^4 /ml). The pH of the liquid nutrient medium was 6.0. After inoculation had taken place the fungi were incubated at 22° C. for 14 days.
(§8) The MIC was then determined. The concentration step at which growth was no longer visible on macroscopic inspection was used for the determination of the MIC. The comparison substance used was 1-(2-(2,4-dichlorophenyl)-2-(2,4-dichlorophenylmethoxy)ethyl)-1H-imidazole(compound A).

Aspergillus fumigatus = settings: 20160 min, pH 6
Description: as §1, §2, §3, §4, §5, §6, §7, §8

Candida albicans = settings: pH 6.0, 22° C., 14 days; for MIC: 336 h, pH 6, Candida albicans, read-out: MIC C.alb
Description: as §1, §2, §3, §4, §5, §6, §7, §8

Candida tropicalis = settings: 336 h, pH 6, Candida tropicalis, pH 6.0, 22° C., 14 days, read-out: MIC C.trop
Description: as §1, §2, §3, §4, §5, §6, §7, §8

Epidermophyton floccosum = settings: pH 6.0, 22° C., 14 days; for MIC: 336 h, pH 6, Epidermophyton floccosum
Description: as §1, §2, §3, §4, §5, §6, §7, §8

Microsporum canis = settings: 336 h, pH 6, Microsporum canis, pH 6.0, 22° C., 14 days
Description: as §1, §2, §3, §4, §5, §6, §7, §8

Microsporum gypseum = settings: pH 6.0, 22° C., 14 days; for MIC: Nannizzia gypsea, 336 h, pH 6, Microsporum gypseum, read-out: MIC Mi.gyp
Description: as §1, §2, §3, §4, §5, §6, §7, §8

Mucor mucedo minus = settings: pH 6.0, 22° C., 14 days; for MIC: Mucor mucedo, 336 h, pH 6, Mucor mucedo minus
Description: as §1, §2, §3, §4, §5, §6, §7, §8

Mucor mucedo plus = settings: pH 6.0, 22° C., 14 days; for MIC: Mucor mucedo, 336 h, pH 6, Mucor mucedo plus
Description: as §1, §2, §3, §4, §5, §6, §7, §8

[1] = tested on: Trichophyton mentagrophytes; settings: pH 6.0, 22° C., 14 days; for MIC: 336 h, pH 6, Trichophyton mentagrophytes
Description: as §1, §2, §3, §4, §5, §6, §7, §8

Trichophyton rubrum = settings: pH 6.0, 22° C., 14 days; for MIC: 336 h, pH 6, Trichophyton rubrum
Description: as §1, §2, §3, §4, §5, §6, §7, §8

Trichophyton verrucosum = settings: pH 6.0, 22° C., 14 days; for MIC: 336 h, pH 6, Trichophyton verrucosum
Description: as §1, §2, §3, §4, §5, §6, §7, §8

Row | SMILES | MIC (Absidia ramosa) | MIC Asp.fu. (Aspergillus fumigatus) | MIC (Candida albicans) | MIC (Candida tropicalis) | MIC (Epidermophyton floccosum) | MIC (Microsporum canis) | MIC (Microsporum gypseum) | MIC (Mucor mucedo minus) | MIC (Mucor mucedo plus) | MIC [1] | MIC (Trichophyton rubrum) | MIC (Trichophyton verrucosum) | further results
1 | Cc1ccc(OCCCNC(Cn2cncn2)c2ccc(Cl)cc2Cl)cc1 (stereo not shown) [Compound 52] | 100 µg/mL (≈ 247 µM) | 6,25 μg/ml | 12.5 µg/mL (≈ 30.8 µM) | 6.25 µg/mL (≈ 15.4 µM) | 3.12 µg/mL (≈ 7.7 µM) | 3.12 µg/mL (≈ 7.7 µM) | 3.12 µg/mL (≈ 7.7 µM) | 12.5 µg/mL (≈ 30.8 µM) | 3.12 µg/mL | 6.25 µg/mL (≈ 15.4 µM) | 3.12 µg/mL (≈ 7.7 µM) | 3.12 µg/mL (≈ 7.7 µM) | –
2 | Clc1ccc(OCCNC(Cn2cncn2)c2ccc(Cl)cc2Cl)cc1 (stereo not shown) [Compound 14] | 100 µg/mL (≈ 243 µM) | 100 µg/mL (≈ 243 µM) | 12.5 µg/mL (≈ 30.4 µM) | 12.5 µg/mL (≈ 30.4 µM) | 3.12 µg/mL (≈ 7.58 µM) | 12.5 µg/mL (≈ 30.4 µM) | 6.25 µg/mL (≈ 15.2 µM) | 6.25 µg/mL (≈ 15.2 µM) | 12.5 µg/mL | 12.5 µg/mL (≈ 30.4 µM) | 6.25 µg/mL (≈ 15.2 µM) | 12.5 µg/mL (≈ 30.4 µM) | –
3 | COc1ccc(SCCNC(Cn2ccnc2)c2ccc(Cl)cc2Cl)cc1 (stereo not shown) [Compound 39] | 25 µg/mL (≈ 59.2 µM) | 12,5 μg/ml | 25 µg/mL (≈ 59.2 µM) | 12.5 µg/mL (≈ 29.6 µM) | 12.5 µg/mL (≈ 29.6 µM) | 12.5 µg/mL (≈ 29.6 µM) | 6.25 µg/mL (≈ 14.8 µM) | 12.5 µg/mL (≈ 29.6 µM) | 12.5 µg/mL | 6.25 µg/mL (≈ 14.8 µM) | 6.25 µg/mL (≈ 14.8 µM) | 6.25 µg/mL (≈ 14.8 µM) | –
4 | Cc1cc(Cl)ccc1OCCCNC(Cn1cncn1)c1ccc(Cl)cc1Cl (stereo not shown) [Compound 68] | 100 µg/mL (≈ 227 µM) | 100 µg/mL (≈ 227 µM) | 50 µg/mL (≈ 114 µM) | 25 µg/mL (≈ 56.8 µM) | 25 µg/mL (≈ 56.8 µM) | 12.5 µg/mL (≈ 28.4 µM) | 25 µg/mL (≈ 56.8 µM) | 12.5 µg/mL (≈ 28.4 µM) | 6.25 µg/mL | 25 µg/mL (≈ 56.8 µM) | 50 µg/mL (≈ 114 µM) | 6.25 µg/mL (≈ 14.2 µM) | –
5 | Clc1ccc(C(Cn2ccnc2)NCCCSc2ccc(Br)cc2)c(Cl)c1 (stereo not shown) [Compound 1, 1-(2-(2,4-Dichlorophenyl)-2-(3-(4-bromophenylthio)propylamino)ethyl)-1H-imidazole] | – | 1,56 μg/ml | – | – | – | – | – | – | – | – | – | – | MIC Abs.ra. (Absidia ramosa; Absidia ramosa): 3,12 μg/ml; MIC C.alb (Candida albicans): 3,12 μg/ml; MIC Ep.flo (Epidermophyton floccosum): 0,78 μg/ml; MIC Mi.gyp (Microsporum gypseum; Microsporum gypseum): 0,39 μg/ml; MIC Mu.mu- (Mucor mucedo minus; Mucor mucedo minus): 6,25 μg/ml; MIC Mu.mu+ (Mucor mucedo plus; Mucor mucedo plus): 6,25 μg/ml; MIC Tri.me. [1]: 0,39 μg/ml; MIC Tri.ru. (Trichophyton rubrum): 0,39 μg/ml; MIC Tri.ve. (Trichophyton verrucosum): 0,30 μg/ml
6 | Clc1ccc(C(Cn2ccnc2)NCCSc2ccc3ccccc3c2)c(Cl)c1 (stereo not shown) [Compound 40] | 12.5 µg/mL (≈ 28.3 µM) | – | 6.25 µg/mL (≈ 14.1 µM) | – | – | – | 3.12 µg/mL (≈ 7.05 µM) | 25 µg/mL (≈ 56.5 µM) | 12.5 µg/mL | 6.25 µg/mL (≈ 14.1 µM) | 3.12 µg/mL (≈ 7.05 µM) | 3.12 µg/mL (≈ 7.05 µM) | MIC Ep.flo (Epidermophyton floccosum): 3,12 μg/ml and 6,25 μg/ml

More lines, main results first:

Row | MIC (Absidia ramosa) | MIC Asp.fu. (Aspergillus fumigatus) | MIC (Candida albicans) | MIC (Candida tropicalis) | MIC (Epidermophyton floccosum) | MIC (Microsporum canis) | MIC (Microsporum gypseum) | MIC (Mucor mucedo minus) | MIC (Mucor mucedo plus) | MIC [1] | MIC (Trichophyton rubrum) | MIC (Trichophyton verrucosum) | SMILES | further results
7 | 100 µg/mL (≈ 217 µM) | 3,12 μg/ml | 3.12 µg/mL (≈ 6.78 µM) | 3.12 µg/mL (≈ 6.78 µM) | 6.25 µg/mL (≈ 13.6 µM) | 25 µg/mL (≈ 54.3 µM) | 6.25 µg/mL (≈ 13.6 µM) | 6.25 µg/mL (≈ 13.6 µM) | 6.25 µg/mL | 25 µg/mL (≈ 54.3 µM) | 3.12 µg/mL (≈ 6.78 µM) | 1.56 µg/mL (≈ 3.39 µM) | Clc1ccc(C(Cn2cncn2)NCCCOc2c(Cl)cccc2Cl)c(Cl)c1 (stereo not shown) [Compound 72] | –
8 | 3.12 µg/mL (≈ 7.39 µM) | 3,12 μg/ml | 3.12 µg/mL (≈ 7.39 µM) | 12.5 µg/mL (≈ 29.6 µM) | 3.12 µg/mL (≈ 7.39 µM) | 1.56 µg/mL (≈ 3.7 µM) | 1.56 µg/mL (≈ 3.7 µM) | 3.12 µg/mL (≈ 7.39 µM) | 3.12 µg/mL | 3.12 µg/mL (≈ 7.39 µM) | 1.56 µg/mL (≈ 3.7 µM) | 1.56 µg/mL (≈ 3.7 µM) | Clc1ccc(SCCCNC(Cn2ccnc2)c2cccc3ccccc23)cc1 (stereo not shown) [Compound 139] | –
9 | 100 µg/mL (≈ 206 µM) | 100 µg/mL (≈ 206 µM) | 25 µg/mL (≈ 51.4 µM) | 12.5 µg/mL (≈ 25.7 µM) | 12.5 µg/mL (≈ 25.7 µM) | 100 µg/mL (≈ 206 µM) | 6.25 µg/mL (≈ 12.9 µM) | 50 µg/mL (≈ 103 µM) | 12.5 µg/mL | 25 µg/mL (≈ 51.4 µM) | 6.25 µg/mL (≈ 12.9 µM) | 12.5 µg/mL (≈ 25.7 µM) | Clc1ccc(C(Cn2cncn2)NCCCSc2ccc(Br)cc2)c(Cl)c1 (stereo not shown) [Compound 104] | –
